The source of these data is patent US7070813B2, “Preventative and treatment effects of morinda citrifolia as a colon cancer cell growth inhibitor” (priority 2001, dated 2006).

This test has as its system human colon tumor cell line DLD-1. The experiment in a line: cells. It counts as cell-based. The settings on record: for Percent Growth (Mean ± SEM, n = 2): 72 h exposure. The procedure:
A colon tumor assay was used to detect changes in cell proliferation based on the ability of viable cells to cause alamarBlue to change from its oxidized state (non-fluorescent, blue) to a reduced (fluorescent, red) form. With the results obtained from the alamarBlue reaction, cell proliferation can be quantified and metabolic activity of viable cells can be examined. MDA-1 (a processed Morinda citrifolia product) was tested for its effect upon the proliferation of human colon tumor cell line (or DLD-1), and at five final assay concentrations from 10% to […] through 2-fold serial dilutions.
The MDA-1 test compound, or Morinda citrifolia fruit juice, was used for in vitro anti-tumor studies. The test compound was in liquid form and diluted with phosphate-buffered saline to obtain initial working solutions. […]
The human colon tumor cell line of DLD-1 was obtained from American Type Culture Collection (ATCC CCL-221). The culture was used with RPMI 1640, 90%; Fetal Bovine Serum, 10% and supplemented with 1% Antibiotic-Antimycotic and the cells were incubated in an atmosphere containing 5% CO2 at 37 degrees Celsius.
In the evaluation of anti-proliferation for test substances, […].
Mean Ftime0=The average of two measured fluorescent intensities of reduced alamarBlue at the time just before exposure of cells to the test substance.
Mean Ftest=The average of two measured fluorescent intensities of alamarBlue after seventy-two hour exposure of cells to the test substance.
Mean Fctrl=The average of two measured fluorescent intensities of alamarBlue after seventy-two hour incubation without the test substance.
Mean Fblank=The average of two measured fluorescent intensities of alamarBlue in medium without cells after seventy-two hour incubation.
A decrease of fifty percent or more (≧50%) in fluorescent intensity relative to vehicle-treated control indicated significant cell growth inhibition, cytostatic or cytotoxic activity, and a semi-quantitative IC50, TGI and LC50 were then determined by nonlinear regression using GraphPad Prism (GraphPad Software, USA).
TGI (Total Growth Inhibition): Test compound concentration where the number or mass of treated cells at the end of experiment was equal to that at time0.
A semi-quantitative determination of IC50, TGI and LC50 was carried out by nonlinear regression analysis using GraphPad Prism (GraphPad Software, USA).

With `CO[C@@]12[C@H](COC(N)=O)C3=C(C(=O)C(C)=C(N)C3=O)N1C[C@@H]1N[C@@H]12` [Mitomycin], for the setting “DLD-1, at <10 μM”, the “activity of standard reference agent (growth inhibition)” value is reported as “Significant activity”. The “Percent Growth (Mean ± SEM, n = 2)” value (DLD-1, concentration 0.001 μM) turned out to be 95 ± 5; the “Percent Growth (Mean ± SEM, n = 2)” value (DLD-1, concentration 0.01 μM) is reported as 103 ± 6; the “Percent Growth (Mean ± SEM, n = 2)” value (DLD-1, concentration 0.1 μM) is on record as 60 ± 7; the “Percent Growth (Mean ± SEM, n = 2)” value (DLD-1, concentration 1 μM) amounted to 35 ± 4; the “Percent Growth (Mean ± SEM, n = 2)” value (DLD-1, concentration 10 μM) was −50 ± 8. Besides, the “Estimated TGI (Total Growth Inhibition)” value (DLD-1, semi-quantitative, nonlinear regression) was 2200 nM. Besides, the IC50 (Homo sapiens, DLD-1, semi-quantitative, nonlinear regression, read-out: Estimated IC50 (50% Inhibition Concentration)) was 380 nM.
